In series [1] the target is T1, Tyrosine-protein phosphatase non-receptor type 1 (Homo sapiens, UniProt P18031).
T1 sequence (P18031 whole entry): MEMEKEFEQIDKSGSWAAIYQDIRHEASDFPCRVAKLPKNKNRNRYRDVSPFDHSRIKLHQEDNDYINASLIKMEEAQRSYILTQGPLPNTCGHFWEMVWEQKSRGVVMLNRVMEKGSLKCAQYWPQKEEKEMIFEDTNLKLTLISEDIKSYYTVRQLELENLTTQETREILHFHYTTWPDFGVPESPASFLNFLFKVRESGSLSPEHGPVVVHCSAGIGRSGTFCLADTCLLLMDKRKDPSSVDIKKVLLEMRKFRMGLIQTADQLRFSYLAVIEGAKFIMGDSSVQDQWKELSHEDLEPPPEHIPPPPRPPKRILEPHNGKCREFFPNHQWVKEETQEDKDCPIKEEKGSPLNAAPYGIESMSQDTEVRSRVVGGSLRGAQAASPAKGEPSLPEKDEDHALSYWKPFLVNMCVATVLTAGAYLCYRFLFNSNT
The series is described as follows: Inhibition of PTP1B (unknown origin).

Series [2] deals with T2, Tyrosine-protein phosphatase non-receptor type 2 (Homo sapiens, UniProt P17706).
T2 sequence (P17706 whole entry): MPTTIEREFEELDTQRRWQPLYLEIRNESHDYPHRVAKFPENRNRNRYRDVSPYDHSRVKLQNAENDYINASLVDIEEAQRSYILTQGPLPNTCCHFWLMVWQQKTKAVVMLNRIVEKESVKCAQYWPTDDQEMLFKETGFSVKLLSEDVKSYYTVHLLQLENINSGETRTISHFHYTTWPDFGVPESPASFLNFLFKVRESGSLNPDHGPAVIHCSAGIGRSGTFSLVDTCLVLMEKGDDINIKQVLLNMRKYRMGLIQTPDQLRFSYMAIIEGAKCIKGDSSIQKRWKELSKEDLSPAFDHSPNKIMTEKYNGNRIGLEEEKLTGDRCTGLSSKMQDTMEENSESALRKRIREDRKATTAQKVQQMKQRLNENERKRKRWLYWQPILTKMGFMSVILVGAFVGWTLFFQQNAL
The series can be described thus: Inhibition of recombinant human TC-PTP (2 to 315 residues) expressed in Escherichia coli using pNPP as substrate.

In series [3] the target is T3, Tyrosine-protein phosphatase non-receptor type 1 (Homo sapiens) (UniProt P18031).
T3 sequence (whole entry): T1 sequence (P18031 whole entry)
The series can be described thus: Inhibition of recombinant human PTP1B (1 to 322 residues) expressed in Escherichia coli at 1 uM using IR5 (1142 to 1153 residues) as substrate incubated for 30 mins by spectrophotometry analysis relative to control.

The species entered for another series is Homo sapiens. The series can be described thus: Selectivity index, ratio of IC50 for recombinant human TC-PTP (2 to 315 residues) to IC50 for recombinant human PTP1B (1 to 322 residues) expressed in Escherichia coli.
A further series deals with HepG2. The series is described as follows: Cytotoxicity against human HepG2 cells assessed as […] cell viability at 50 uM measured after 24 hrs by MTT assay relative to control. It counts as cell-based. The settings on record: hepg2, 24 h. A general note: Formazan colour is commonly taken as a measure of viable cells.
Series [4] concerns the target T1, Tyrosine-protein phosphatase non-receptor type 1. The series can be described thus: Inhibition of recombinant human PTP1B (1 to 322 residues) expressed in Escherichia coli using pNPP as substrate.
For another series, the system named is C2C12. The series can be described thus: Induction of glucose uptake in mouse C2C12 cells at 2 uM pretreated with insulin for 30 mins followed by compound treatment for 90 mins by fluorescence microplate reader assay relative to control. It is filed as functional. The settings on record: 1.5 h.
Series [5] is described as follows: Stability of the compound measured after 2 months at 4 degreeC. It is filed as physicochemical. As to conditions: 1460 h.
Series [6] in a line: Stability of the compound measured after 5 days. It is filed as physicochemical. As to conditions: 120 h; time 5 day.
Series [7] can be described thus: Stability of the compound measured up to 5 days. It is filed as physicochemical. As to conditions: 120 h; time <=5 day.

The text below walks through data of ChEMBL document CHEMBL4811318, “Pyrrolo[1,2-a]quinoxal-5-inium salts and 4,5-dihydropyrrolo[1,2-a]quinoxalines: Synthesis, activity and computational docking for protein tyrosine phosphatase 1B” (Bioorg Med Chem, 2021).

In turn, `C=C(C)[C@@H]1CC[C@]2(C)CC[C@]3(C)[C@H](CC[C@@H]4[C@@]5(C)CC[C@H](O)C(C)(C)[C@@H]5CC[C@]43C)[C@@H]12` [LUPEOL] showed an IC50 in series [1] of 560 nM.

As to `Cc1c2cccn2c2cc(Cl)ccc2[n+]1C.[I-]`, the IC50 in [2] was greater than 5000 nM; in [4] it was 830 nM. Besides, the inhibition in [3] was determined as 22%. In addition, the Ratio IC50 in the series listed under Homo sapiens was greater than 6.02. In addition, in the series on HepG2, the Activity is reported as greater than 90%.

For `CC1Nc2cc(C(F)(F)F)ccc2-n2cccc21` (stereo not drawn), the inhibition in series [3] is 56%. Also, the Activity in the series on HepG2 is recorded as greater than 90%.

For `Cc1nc2cc(Cl)c(Cl)cc2n2cccc12`, the IC50 in series [2] was greater than 25000 nM; in [4], 570 nM. Further, the Ratio IC50 in the series filed under Homo sapiens is greater than 43. The Activity in the series on HepG2 is greater than 90%.

Consider `Cc1nc2ccc(Cl)cc2n2cccc12`, for which the IC50 in series [2] was greater than 25000 nM; in series [4] it was 600 nM. In addition, the Ratio IC50 in the series filed under Homo sapiens is greater than 41. For the same compound, the Activity in the series with HepG2 is recorded as greater than 90%.

Take `CCCC[n+]1c(C)c2cccn2c2ccccc21.[I-]`: the inhibition in series [3] amounted to 22%. Besides, in the series with HepG2, the Activity is reported as greater than 90%. The IC50 in [4] worked out at 1910 nM.

`c1ccc(Cc2nc3ccccc3n3cccc23)cc1` had an IC50 in series [1] of 240 nM.

Take `COc1ccc2c(c1)nc(C)c1cccn12`: the Activity in the series on HepG2 is given as greater than 90%. The IC50 in [4] was greater than 10000 nM.

As to `Cc1cc2c(cc1C)[n+](C)c(C)c1cccn12.[I-]`, the inhibition in series [3] turned out to be 22%. In the series with HepG2, the Activity is on record as greater than 90%.

`C=C(C)[C@@H]1CC[C@]2(C(=O)O)CC[C@]3(C)[C@H](CC[C@@H]4[C@@]5(C)CC[C@H](O)C(C)(C)[C@@H]5CC[C@]43C)[C@@H]12` [BETULINIC ACID] returned an IC50 in [1] of 1500 nM.

For `Cc1nc2ccccc2n2cccc12`, the IC50 in [2] came out at 3950 nM. For the same compound, the Ratio IC50 in the series filed under Homo sapiens is 4. Also, the Activity in the series with HepG2 was greater than 90%.

For `CC1c2cccn2-c2ccccc2N1C` (stereo not drawn), the IC50 is 500 nM in series [2] and 510 nM in series [4]. Besides, the inhibition in [3] stood at 56%. The Ratio IC50 in the series filed under Homo sapiens was found to be 0.98. The Activity in the series with HepG2 is on record as greater than 90%.

`Cc1cc2c(cc1C)-n1cccc1C(C)N2` (stereo not drawn): in series [3], the inhibition was 56%. Besides, in the series on HepG2, the Activity was greater than 90%.

In series [1], `CC1(C)CC[C@]2(C(=O)O)CC[C@@H]3C(=CC[C@H]4[C@H]3CC[C@@H]3[C@@H]4CC[C@H](O[C@@H]4O[C@H](CO)[C@@H](O)[C@H](O)[C@H]4O)C3(C)C)[C@@H]2C1` displayed an IC50 of 1400 nM.

For `Cc1ccc2c(c1)[n+](C)c(C)c1cccn12.[I-]`, the inhibition in series [3] was found to be 22%. Moreover, the Activity in the series on HepG2 is on record as greater than 90%. Also, the IC50 in series [4] is greater than 10000 nM.

As for `Cc1ccc2c(c1)NC(C)c1cccn1-2` (stereo not drawn), the inhibition in series [3] was determined as 56%.

Consider `COc1ccc2c(c1)NC(C)c1cccn1-2` (stereo not drawn), for which the inhibition in series [3] was found to be 56%. Further, in the series on HepG2, the Activity is recorded as greater than 90%. The IC50 in series [4] turned out to be 1390 nM.

Regarding `Cc1nc2cc(C(F)(F)F)ccc2n2cccc12`, the Activity with HepG2 is greater than 90%. The IC50 in series [4] was greater than 10000 nM.

For the compound `CC1Nc2cc(Cl)c(Cl)cc2-n2cccc21` (stereo not drawn), the IC50 is greater than 5000 nM in [2] and 950 nM in [4]. Moreover, the inhibition in series [3] was 56%. In addition, the Activity in the series on C2C12 is listed as 150%; with HepG2 it was greater than 90%. For the same compound, in the series listed under Homo sapiens, the Ratio IC50 was greater than 5.26.

On to `CC1Nc2ccc(Cl)cc2-n2cccc21` (stereo not drawn), for which the IC50 in series [2] is greater than 5000 nM; in series [4] it was 450 nM. The inhibition in series [3] was 56%. Besides, in the series filed under Homo sapiens, the Ratio IC50 is greater than 11.1. Also, the Activity in the series on HepG2 was greater than 90%.

As to `CC1Nc2ccccc2-n2cccc21` (stereo not drawn), the inhibition in [3] came out at 56%. Moreover, the Stabilty entry was “Stable” in series [5], “Unstable” in series [6] and “Stable” in series [7]. Moreover, the Activity in the series on HepG2 is reported as greater than 90%. Moreover, the 50% inhibitory concentration (IC50) in series [4] worked out at 410 nM.

Regarding `COc1ccc2c(c1)[n+](C)c(C)c1cccn12.[I-]`, the inhibition in series [3] was determined as 22%. Further, the Activity with HepG2 is recorded as greater than 90%. Besides, the IC50 in [4] is greater than 10000 nM.

Consider `Cc1c2cccn2c2ccc(C(F)(F)F)cc2[n+]1C.[I-]`, for which the IC50 in [2] was 410 nM; in series [4] it was 580 nM. Further, the inhibition in series [3] was determined as 22%. Further, the Ratio IC50 in the series filed under Homo sapiens came to 0.71. For the same compound, the Activity in the series with HepG2 is given as greater than 90%.

Take `Cc1cc2nc(C)c3cccn3c2cc1C`: the Activity in the series on HepG2 was greater than 90%. The 50% inhibitory concentration (IC50) in series [4] is greater than 10000 nM.

As to `Cc1ccc2c(c1)nc(C)c1cccn12`, the Activity with HepG2 is listed as greater than 90%. For the same compound, the IC50 in series [4] is greater than 10000 nM.

As for `Cc1c2cccn2c2ccccc2[n+]1C.[I-]`, the inhibition in [3] came out at 22%. Further, in the series with HepG2, the Activity is listed as greater than 90%. The IC50 in series [4] was determined as 320 nM.

Compound `CCCCCCS(=O)(=O)NC(=O)c1ccc(CSCc2ccc(-c3ccccc3)cc2)cc1` returned an IC50 in series [1] of 250 nM.

In general, IC50 refers to the concentration at which inhibition is half-maximal. The inhibition is how much of the control response was suppressed.
